Tested on: patients with cGVHD
Experiment: Example 1: pulmonary function (percent predicted FEV1, FVC, DLco, TLC, RV) change from baseline
Type: in vivo, human
Method: Change From Baseline in Percent Predicted Forced Expiratory Volume in 1 Second (FEV1) at Each Specified Time Points. FEV1 was the volume of air exhaled from the lungs in the first second of a forced expiration as measured by spirometer. Baseline value was defined as valid and last non-missing value obtained within 28 days prior to participant receiving first study medication. EOT visit was performed within 3 days after the participant's last dose of study drug. […] Analysis was performed on mITT population. Here, ‘number analyzed’=participants with available data for each specified category. Here, ‘0’ in the number analyzed field signifies that none of the participants were available for the analysis at the specified time points.
Change From Baseline in Percent Predicted Forced Vital Capacity (FVC) at Each Specified Time Points. FVC was the total amount of air (in liters) exhaled from the lungs during the lung function test measured by spirometer which assessed the change in lung function related to the disease status. Baseline value was defined as valid and last non-missing value obtained within 28 days prior to participant receiving first study medication. EOT visit was performed within 3 days after the participant's last dose of study drug. […] Analysis was performed on mITT population. Here, ‘number analyzed’=participants with available data for each specified category. Here, ‘0’ in the number analyzed field signifies that none of the participants were available for the analysis at the specified time points.
Change From Baseline in Percent Predicted Hemoglobin (HGB) Corrected Diffusing Capacity of Lung for Carbon Monoxide (DLco) at Each Specified Time Points. DLco is a measurement of the ability of the lungs to transfer gases from the air to the blood. Change from baseline in diffusing capacity of the lung for carbon monoxide (percent predicted hemoglobin level corrected) was reported for this measure. Baseline value was defined as valid and last non-missing value obtained within 28 days prior to participant receiving first study medication. EOT visit was performed within 3 days after the participant's last dose of study drug. […] Analysis was performed on mITT population. Here, ‘number analyzed’=participants with available data for each specified category. Here, ‘0’ in the number analyzed field signifies that none of the participants were available for the analysis at the specified time points.
Change From Baseline in Percent Predicted Total Lung Capacity (TLC) at Each Specified Time Points. TLC is the volume of air in the lungs upon the maximum effort of inspiration. Baseline value was defined as valid and last non-missing value obtained within 28 days prior to participant receiving first study medication. EOT visit was performed within 3 days after the participant's last dose of study drug. […] Analysis was performed on mITT population. Here, ‘number analyzed’=participants with available data for each specified category.

## CC(C)NC(=O)COc1cccc(-c2nc(Nc3ccc4[nH]ncc4c3)c3ccccc3n2)c1 [Belumosudil, 2-{3-[4-(1H-indazol-5-ylamino)-2-quinazolinyl]phenoxy}-N-(propan-2-yl) acetamide]
Cohort 1: 200 mg QD, Cycle 3, Day 1, n=14
  Change From Baseline in Percent Predicted Residual Volume (RV), Mean (Standard Deviation): 0.2 (22.2) percent predicted RV
Cohort 1: 200 mg QD, Cycle 5, Day 1, n=13
  Change From Baseline in Percent Predicted Residual Volume (RV), Mean (Standard Deviation): 5.2 (24.5) percent predicted RV
Cohort 1: 200 mg QD, Cycle 7, Day 1, n=11
  Change From Baseline in Percent Predicted Residual Volume (RV), Mean (Standard Deviation): 4.9 (29.1) percent predicted RV
Cohort 1: 200 mg QD, Cycle 9, Day 1, n=9
  Change From Baseline in Percent Predicted Residual Volume (RV), Mean (Standard Deviation): 6.4 (27.4) percent predicted RV
Cohort 1: 200 mg QD, Cycle 11, Day 1, n=7
  Change From Baseline in Percent Predicted Residual Volume (RV), Mean (Standard Deviation): 22.1 (29.6) percent predicted RV
Cohort 1: 200 mg QD, Cycle 12, Day 1, n=1
  Change From Baseline in Percent Predicted Residual Volume (RV), Mean (Standard Deviation): −28.0 (—) percent predicted RV
Cohort 1: 200 mg QD, Cycle 13, Day 1, n=7
  Change From Baseline in Percent Predicted Residual Volume (RV), Mean (Standard Deviation): 20.3 (19.9) percent predicted RV
Cohort 1: 200 mg QD, Cycle 14, Day 1, n=1
  Change From Baseline in Percent Predicted Residual Volume (RV), Mean (Standard Deviation): 78.0 (—) percent predicted RV
Cohort 1: 200 mg QD, Cycle 15, Day 1, n=6
  Change From Baseline in Percent Predicted Residual Volume (RV), Mean (Standard Deviation): 20.3 (27.4) percent predicted RV
Cohort 1: 200 mg QD, Cycle 16, Day 1, n=1
  Change From Baseline in Percent Predicted Residual Volume (RV), Mean (Standard Deviation): 0.0 (—) percent predicted RV
Cohort 1: 200 mg QD, Cycle 17, Day 1, n=5
  Change From Baseline in Percent Predicted Residual Volume (RV), Mean (Standard Deviation): 13.6 (27.8) percent predicted RV
Cohort 1: 200 mg QD, Cycle 19, Day 1, n=5
  Change From Baseline in Percent Predicted Residual Volume (RV), Mean (Standard Deviation): 5.4 (28.7) percent predicted RV
Cohort 1: 200 mg QD, Cycle 21, Day 1, n=3
  Change From Baseline in Percent Predicted Residual Volume (RV), Mean (Standard Deviation): 8.3 (10.0) percent predicted RV
Cohort 1: 200 mg QD, Cycle 23, Day 1, n=3
  Change From Baseline in Percent Predicted Residual Volume (RV), Mean (Standard Deviation): 0.3 (5.1) percent predicted RV
Cohort 1: 200 mg QD, Cycle 24, Day 1, n=1
  Change From Baseline in Percent Predicted Residual Volume (RV), Mean (Standard Deviation): −4.0 (—) percent predicted RV
Cohort 1: 200 mg QD, Cycle 25, Day 1, n=2
  Change From Baseline in Percent Predicted Residual Volume (RV), Mean (Standard Deviation): 1.0 (9.9) percent predicted RV
Cohort 1: 200 mg QD, Cycle 26, Day 1, n=1
  Change From Baseline in Percent Predicted Residual Volume (RV), Mean (Standard Deviation): −3.0 (—) percent predicted RV
Cohort 1: 200 mg QD, Cycle 27, Day 1, n=2
  Change From Baseline in Percent Predicted Residual Volume (RV), Mean (Standard Deviation): 19.5 (41.7) percent predicted RV
Cohort 1: 200 mg QD, Cycle 29, Day 1, n=2
  Change From Baseline in Percent Predicted Residual Volume (RV), Mean (Standard Deviation): −13.0 (42.4) percent predicted RV
Cohort 1: 200 mg QD, Cycle 37, Day 1, n=1
  Change From Baseline in Percent Predicted Residual Volume (RV), Mean (Standard Deviation): −54.0 (—) percent predicted RV
Cohort 1: 200 mg QD, Cycle 38, Day 1, n=1
  Change From Baseline in Percent Predicted Residual Volume (RV), Mean (Standard Deviation): 8.0 (—) percent predicted RV
Cohort 1: 200 mg QD, Cycle 39, Day 1, n=2
  Change From Baseline in Percent Predicted Residual Volume (RV), Mean (Standard Deviation): 43.0 (89.1) percent predicted RV
Cohort 1: 200 mg QD, Cycle 40, Day 1, n=1
  Change From Baseline in Percent Predicted Residual Volume (RV), Mean (Standard Deviation): −1.0 (—) percent predicted RV
Cohort 1: 200 mg QD, Cycle 41, Day 1, n=1
  Change From Baseline in Percent Predicted Residual Volume (RV), Mean (Standard Deviation): 80.0 (—) percent predicted RV
Cohort 1: 200 mg QD, Cycle 43, Day 1, n=1
  Change From Baseline in Percent Predicted Residual Volume (RV), Mean (Standard Deviation): 58.0 (—) percent predicted RV
Cohort 1: 200 mg QD, Cycle 47, Day 1, n=1
  Change From Baseline in Percent Predicted Residual Volume (RV), Mean (Standard Deviation): 42.0 (—) percent predicted RV
Cohort 1: 200 mg QD, Cycle 48, Day 1, n=1
  Change From Baseline in Percent Predicted Residual Volume (RV), Mean (Standard Deviation): −50.0 (—) percent predicted RV
Cohort 1: 200 mg QD, Cycle 49, Day 1, n=1
  Change From Baseline in Percent Predicted Residual Volume (RV), Mean (Standard Deviation): −14.0 (—) percent predicted RV
Cohort 1: 200 mg QD, Cycle 51, Day 1, n=1
  Change From Baseline in Percent Predicted Residual Volume (RV), Mean (Standard Deviation): 22.0 (—) percent predicted RV
Cohort 1: 200 mg QD, Cycle 52, Day 1, n=1
  Change From Baseline in Percent Predicted Residual Volume (RV), Mean (Standard Deviation): −4.0 (—) percent predicted RV
Cohort 1: 200 mg QD, Cycle 53, Day 1, n=1
  Change From Baseline in Percent Predicted Residual Volume (RV), Mean (Standard Deviation): 22.0 (—) percent predicted RV
Cohort 1: 200 mg QD, Cycle 54, Day 1, n=1
  Change From Baseline in Percent Predicted Residual Volume (RV), Mean (Standard Deviation): 4.0 (—) percent predicted RV
Cohort 1: 200 mg QD, Cycle 55, Day 1, n=1
  Change From Baseline in Percent Predicted Residual Volume (RV), Mean (Standard Deviation): 53.0 (—) percent predicted RV
Cohort 1: 200 mg QD, Cycle 56, Day 1, n=1
  Change From Baseline in Percent Predicted Residual Volume (RV), Mean (Standard Deviation): 17.0 (—) percent predicted RV
Cohort 1: 200 mg QD, Cycle 57, Day 1, n=1
  Change From Baseline in Percent Predicted Residual Volume (RV), Mean (Standard Deviation): 18.0 (—) percent predicted RV
Cohort 1: 200 mg QD, Cycle 58, Day 1, n=1
  Change From Baseline in Percent Predicted Residual Volume (RV), Mean (Standard Deviation): 4.0 (—) percent predicted RV
Cohort 1: 200 mg QD, Cycle 60, Day 1, n=1
  Change From Baseline in Percent Predicted Residual Volume (RV), Mean (Standard Deviation): −20.0 (—) percent predicted RV
Cohort 1: 200 mg QD, Cycle 61, Day 1, n=1
  Change From Baseline in Percent Predicted Residual Volume (RV), Mean (Standard Deviation): −18.0 (—) percent predicted RV
Cohort 1: 200 mg QD, Cycle 62, Day 1, n=1
  Change From Baseline in Percent Predicted Residual Volume (RV), Mean (Standard Deviation): −8.0 (—) percent predicted RV
Cohort 1: 200 mg QD, Cycle 63, Day 1, n=1
  Change From Baseline in Percent Predicted Residual Volume (RV), Mean (Standard Deviation): 6.0 (—) percent predicted RV
Cohort 1: 200 mg QD, Cycle 67, Day 1, n=1
  Change From Baseline in Percent Predicted Residual Volume (RV), Mean (Standard Deviation): 2.0 (—) percent predicted RV
Cohort 1: 200 mg QD, EOT, n=11
  Change From Baseline in Percent Predicted Residual Volume (RV), Mean (Standard Deviation): 6.3 (24.3) percent predicted RV
Cohort 2: 200 mg BID, Cycle 3, Day 1, n=12
  Change From Baseline in Percent Predicted Residual Volume (RV), Mean (Standard Deviation): −4.6 (18.8) percent predicted RV
Cohort 2: 200 mg BID, Cycle 5, Day 1, n=11
  Change From Baseline in Percent Predicted Residual Volume (RV), Mean (Standard Deviation): −11.5 (26.9) percent predicted RV
Cohort 2: 200 mg BID, Cycle 7, Day 1, n=8
  Change From Baseline in Percent Predicted Residual Volume (RV), Mean (Standard Deviation): −9.9 (17.1) percent predicted RV
Cohort 2: 200 mg BID, Cycle 8, Day 1, n=1
  Change From Baseline in Percent Predicted Residual Volume (RV), Mean (Standard Deviation): −28.0 (—) percent predicted RV
Cohort 2: 200 mg BID, Cycle 9, Day 1, n=8
  Change From Baseline in Percent Predicted Residual Volume (RV), Mean (Standard Deviation): −19.9 (24.3) percent predicted RV
Cohort 2: 200 mg BID, Cycle 10, Day 1, n=2
  Change From Baseline in Percent Predicted Residual Volume (RV), Mean (Standard Deviation): −47.5 (0.7) percent predicted RV
Cohort 2: 200 mg BID, Cycle 11, Day 1, n=6
  Change From Baseline in Percent Predicted Residual Volume (RV), Mean (Standard Deviation): −10.5 (28.3) percent predicted RV
Cohort 2: 200 mg BID, Cycle 12, Day 1, n=1
  Change From Baseline in Percent Predicted Residual Volume (RV), Mean (Standard Deviation): −5.0 (—) percent predicted RV
